Laboratory results published in PubChem BioAssay (NCI).
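All cell lines were grown in 96-well plates and treated with compound for 48 hours. GI50: concentration for 50% inhibition of growth. TGI: concentration producing complete growth inhibition.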

Key:
Assay in all cases: DTP human tumour cell line panel, 48 h
[1] = system: KM12 colon
[2] = system: HCC-2998 colon
[3] = system: HOP-92 NSCLC
[4] = system: SN12C renal
[5] = system: HOP-62 NSCLC
[6] = system: EKVX NSCLC
[7] = system: OVCAR-8 ovarian
[8] = system: OVCAR-5 ovarian
[9] = system: HCT-116 colon
[10] = system: SR leukemia
[11] = system: SF-539 CNS
[12] = system: SNB-75 CNS
[13] = system: DU-145 prostate
[14] = system: HT29 colon
[15] = system: A498 renal
[16] = system: UACC-62 melanoma
[17] = system: T-47D breast
[18] = system: HL-60(TB) leukemia
[19] = system: UO-31 renal
[20] = system: BT-549 breast
[21] = system: LOX IMVI melanoma
[22] = system: NCI-H226 lung
[23] = system: OVCAR-4 ovarian
[24] = system: ACHN renal
[25] = system: MDA-MB-435
[26] = system: SW-620 colon
[27] = system: TK-10 renal
[28] = system: SF-268 CNS
[29] = system: OVCAR-3 ovarian
[30] = system: SK-OV-3 ovarian
[31] = system: SF-295 CNS
[32] = system: PC-3 prostate
[33] = system: NCI/ADR-RES ovarian
[34] = system: NCI-H460 lung
[35] = system: 786-0 renal
[36] = system: CCRF-CEM leukemia
[37] = system: MOLT-4 leukemia
[38] = system: RPMI-8226 leukemia
[39] = system: SK-MEL-5 melanoma
[40] = system: NCI-H522 lung
[41] = system: HS 578T breast
[42] = system: SNB-19 CNS
[43] = system: NCI-H23 lung
[44] = system: K-562 leukemia
[45] = system: CAKI-1 renal
[46] = system: HCT-15 colon
[47] = system: M14 melanoma
[48] = system: A549 NSCLC
[49] = system: IGROV1 ovarian
[50] = system: RXF 393 renal
[51] = system: MALME-3M melanoma
[52] = system: U251 CNS
[53] = system: SK-MEL-28 melanoma
[54] = system: COLO 205 colon
[55] = system: SK-MEL-2 melanoma
[56] = system: MDA-MB-231 breast
[57] = system: MCF7 breast
[58] = system: UACC-257 melanoma

In the case of `O=C(/C=C/c1cc2ccccc2[nH]c1=O)c1ccc(Cl)cc1`, the GI50 [1] is reported as 22.3 µM, the TGI [1] is reported as > 54.6 µM and the GI50 [2] is reported as 25.1 µM. For the same molecule, the TGI [2] was 56.6 µM, the GI50 [3] was 21.6 µM and the TGI [3] was 76.8 µM. The GI50 [4] was 30.8 µM, the TGI [4] was > 100 µM and the GI50 [5] was 29.6 µM. The TGI [5] was > 76.2 µM, the GI50 [6] was 28.5 µM and the TGI [6] was > 100 µM. For the same molecule, the GI50 [7] was 25.3 µM, the TGI [7] was > 59.6 µM and the GI50 [8] was 38.2 µM. For the same molecule, the TGI [8] was 99 µM, the GI50 [9] was 18 µM and the TGI [9] was 49.1 µM. The GI50 [10] was 15.6 µM, the TGI [10] was > 57.6 µM and the GI50 [11] was 16.9 µM. For the same molecule, the TGI [11] was 39.3 µM, the GI50 [12] was 22.4 µM and the TGI [12] was 61.5 µM. For the same molecule, the GI50 [13] was 23 µM, the TGI [13] was > 78.8 µM and the GI50 [14] was 21 µM. The TGI [14] was > 60.8 µM, the GI50 [15] was > 56.3 µM and the TGI [15] was > 100 µM. The GI50 [16] was 26.4 µM, the TGI [16] was > 81.6 µM and the GI50 [17] was 27.3 µM. The TGI [17] was > 100 µM, the TGI [18] was > 100 µM and the GI50 [19] was > 23 µM. The TGI [19] was > 100 µM, the GI50 [20] was 24.9 µM and the TGI [20] was > 55.6 µM. For the same molecule, the GI50 [21] was 19.4 µM, the TGI [21] was > 60.5 µM and the GI50 [22] was 41 µM. The TGI [22] was > 73 µM, the GI50 [23] was 17.3 µM and the TGI [23] was > 100 µM. The GI50 [24] was 33 µM, the TGI [24] was > 64.9 µM and the GI50 [25] was 18.8 µM. For the same molecule, the TGI [25] was > 50.8 µM, the GI50 [26] was 20.5 µM and the TGI [26] was > 49.5 µM. For the same molecule, the GI50 [27] was 26.4 µM, the TGI [27] was > 59.3 µM and the GI50 [28] was 28 µM. For the same molecule, the TGI [28] was > 85.8 µM, the GI50 [29] was 27.3 µM and the TGI [29] was > 67.6 µM. For the same molecule, the GI50 [30] was 55.1 µM, the TGI [30] was > 100 µM and the GI50 [31] was 23.2 µM. For the same molecule, the TGI [31] was > 72.6 µM, the GI50 [32] was > 67.7 µM and the TGI [32] was > 100 µM. It also gave a GI50 [33] of 21.9 µM, a TGI [33] of 56.2 µM and a GI50 [34] of 26.2 µM. For the same molecule, the TGI [34] was > 57.3 µM, the GI50 [35] was > 37.2 µM and the TGI [35] was > 100 µM. For the same molecule, the GI50 [36] was 21.6 µM, the TGI [36] was > 100 µM and the GI50 [37] was 22.8 µM. For the same molecule, the TGI [37] was > 100 µM, the GI50 [38] was 13.8 µM and the TGI [38] was 50.1 µM. For the same molecule, the GI50 [39] was 47.6 µM, the TGI [39] was > 100 µM and the GI50 [40] was 15.7 µM. For the same molecule, the TGI [40] was 32.1 µM, the GI50 [41] was > 48 µM and the TGI [41] was > 100 µM. For the same molecule, the GI50 [42] was 28.2 µM, the TGI [42] was > 100 µM and the GI50 [43] was 27.3 µM. The TGI [43] was 97.7 µM, the GI50 [44] was > 71.3 µM and the TGI [44] was > 100 µM. For the same molecule, the GI50 [45] was 16.8 µM, the TGI [45] was > 32.1 µM and the GI50 [46] was 20.2 µM. The TGI [46] was > 58.7 µM, the GI50 [47] was 28.7 µM and the TGI [47] was > 73.5 µM. For the same molecule, the GI50 [48] was 30.7 µM, the TGI [48] was > 100 µM and the GI50 [49] was 23.3 µM. For the same molecule, the TGI [49] was > 52.8 µM, the GI50 [50] was 22.9 µM and the TGI [50] was > 60.2 µM. The GI50 [51] was 37.2 µM, the TGI [51] was > 70.7 µM and the GI50 [52] was 19.1 µM. For the same molecule, the TGI [52] was > 48.5 µM, the GI50 [53] was > 56.1 µM and the TGI [53] was > 89.8 µM. The GI50 [54] was 37.4 µM, the TGI [54] was > 80 µM and the GI50 [55] was 30.1 µM. The TGI [55] was > 63.6 µM, the GI50 [56] was 25.5 µM and the TGI [56] was 61.3 µM. For the same molecule, the GI50 [57] was 17.9 µM, the TGI [57] was > 100 µM and the GI50 [58] was 33.5 µM. For the same molecule, the TGI [58] was > 77.7 µM.
